# Measurements reported in patent US10487113B2, “Peptide having activity to improve skin condition and use thereof” (CAREGEN CO., LTD., priority 2014, dated 2019).
# Legend:
# [1] = system: Human primary dermal fibroblast cells; assay: Human primary dermal fibroblast cell proliferation, SRB assay; format: cell-based; conditions: 1 ng/ml to 1 ug/ml, 72 hours, SRB assay OD 590 nm
# Description: Human primary dermal fibroblast cells were treated with CG-Renuin (peptide of SEQ ID NO: 1) and CG-Noverin (peptide of SEQ ID NO: 2) at different concentrations (1 ng/ml to 1 ug/ml), and the cells were incubated for 72 hours in a cell incubator. Then, the cell proliferation change by the peptide treatment was analyzed through SRB assay (OD 590 nm).
# NIH3T3 cells = assay: Western blotting of pERK and p38 in UVA-irradiated cells; format: cell-based; conditions: 1-10 ug/ml, 30 minutes, then UVA (8 J), 24 hours
# Description: NIH3T3 cells ([…]) were seeded in a 6-well plate at a cell density of 2×10^5 cells/well, followed by incubation overnight, and then the cells were treated with CG-Renuin or CG-Noverin peptides at different concentrations (1-10 ug/ml), followed by incubation at 37 °C for 30 minutes. Then, the cells were irradiated with UVA (8 J), followed by incubation for 24 hours. The lysates were obtained by the treatment with the cell lysis buffer, followed by protein quantification. For the confirmation of the expression of cellular activating factors, western blotting was conducted using the anti-pERK (Santa Cruz Biotechnology, USA) and p38 (Santa Cruz Biotechnology, USA) antibodies.
# MMP2 [2] = biological target: T1, MMP2 (Homo sapiens, UniProt P08253); assay: rhMMP2 inhibition by gelatin zymography; format: biochemical; conditions: rhMMP2 mixed with peptide 0.1 ug/ml and 1 ug/ml, room temperature, 1 hour
# T1 sequence (P08253 110-660): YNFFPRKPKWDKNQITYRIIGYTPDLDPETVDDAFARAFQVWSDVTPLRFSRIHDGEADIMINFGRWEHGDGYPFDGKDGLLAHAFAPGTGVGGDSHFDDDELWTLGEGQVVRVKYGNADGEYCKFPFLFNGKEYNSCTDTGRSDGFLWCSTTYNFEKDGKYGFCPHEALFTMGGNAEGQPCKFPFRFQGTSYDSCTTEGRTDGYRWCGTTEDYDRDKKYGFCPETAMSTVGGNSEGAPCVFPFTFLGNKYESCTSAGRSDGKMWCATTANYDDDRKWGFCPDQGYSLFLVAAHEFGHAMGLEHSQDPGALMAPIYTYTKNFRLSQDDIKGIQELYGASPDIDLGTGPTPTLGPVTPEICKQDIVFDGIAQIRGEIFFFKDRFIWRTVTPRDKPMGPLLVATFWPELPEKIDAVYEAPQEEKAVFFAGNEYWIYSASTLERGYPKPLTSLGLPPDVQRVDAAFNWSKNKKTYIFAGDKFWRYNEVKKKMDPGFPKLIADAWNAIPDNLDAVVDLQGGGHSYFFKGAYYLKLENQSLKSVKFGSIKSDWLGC
# Description: (§1) After rhMMP2 was mixed with the peptides at different concentrations (0.1 ug/ml and 1 ug/ml), the incubation was conducted at room temperature for 1 hour. Then, in order to investigate the expression of rhMMP2 through gelatin zymography, protein electrophoresis (SDS-PAGE) was conducted using gelatin (2 mg/ml) as a substrate. After the electrophoresis, the gel was immersed in 2.5% Triton X-100 for 30 minutes, and then incubated in a buffer containing 50 mM Tris-HCl, 0.2 M NaCl, 5 mM CaCl2), and 1% Triton X-100 at 37 °C for 24 hours. After the incubation, the gel was stained with Coo-massie Brilliant Blue R250 (Sigma), and de-stained with a solution containing 5% methanol, 7.5% acetic acid, and distilled water. In addition, the bands formed by gelatin hydrolysis were observed.
# MMP2 [3] = biological target: T2, MMP2 (Mus musculus, UniProt P33434); assay: MMP2 activity in TNF-α-induced fibroblast cells (NIH3T3), gelatin zymography; format: cell-based; conditions: NIH3T3, MMP2 induced by TNF-α; 10, 100, 1000 ng/ml, 24 hours
# T2 construct: endogenous in cells; host or cells: NIH3T3
# Description: as §1, with “Fibroblast cells (NIH3T3) were seeded in a 24-well plate at a cell density of 3×10^4 cells/well. The next day, the cells were incubated in serum-less medium for 24 hours, and the expression and activation of MMP2 were induced by TNF-α. The cells were treated” for “After rhMMP2 was mixed”, “CG-Renuin or CG-Noverin” for “the peptides”, “(10 ng/ml, 100 ng/ml, 1000 ng/ml), followed by incubation for 24 hours. The supernatant obtained from centrifugation at 14,000×g for 10 minutes was incubated,” for “(0.1 ug/ml”, “then,” for “1 ug/ml), the incubation was conducted at room temperature for 1 hour. Then,”, “MMP2” for “rhMMP2”
# HaCaT keratinocytes = assay: Melanosome transfer: phagocytosis assay with fluorescent bioparticles; format: cell-based; conditions: trypsin 1 μg/ml induction, peptide 1 μg/ml, 48 hours; trypsin treatment group considered 100%
# Description: In order to observe melanosome transfer, phagocytosis assay was conducted using HaCaT keratinocytes. Bioparticles with a fluorescence substance attached thereto were used as a substance for phagocytosis. The cells were seeded in a 96-well tissue culture plate at 3×10^3 cells/well, incubated for 24 hours, and then incubated in a serum-free medium for 6 hours. Thereafter, for the induction of phagocytosis, the cells were treated with 1 μg/ml of trypsin, and then the cells were treated with 1 μg/ml of peptides for 48 hours. As a result, it was confirmed through a fluorescent microscope that the bioparticles were phagocytized into keratocytes. From the observation when the data with respect to a phagocytosis induction group, that is, a trypsin treatment group, were considered to be 100%, it was verified that phagocytosis was inhibited in the CG-Noverin treatment group and the CG-Renuin treatment group.
# MMP2 [4] = biological target: T1, MMP2; assay: Inhibition of MMP2-induced collagen degradation in human dermal fibroblast (HDF) cells, pro-collagen type I kit; format: cell-based; parameters: purchased SIGMA/USA; host or cells: added to human dermal fibroblast (HDF) cells; conditions: MMP2 20 ng/ml co-treatment, 6 hours, or after IGF-1 100 ng/ml, 4 hours, pro-collagen type I in supernatant
# Description: Human dermal fibroblast (HDF) cells (3×10^4) were seeded in a 24-well plate. The next day, the cells were incubated in 5% serum medium for 42 hours, treated with MMP2 (20 ng/ml, SIGMA/USA) and CG-Noverin or CG-Renuin, respectively, and incubated for 6 hours. The supernatant obtained from centrifugation at 14,000×g for 10 minutes was analyzed using the pro-collagen type I kit (RnD system/USA).
# Human dermal fibroblast (HDF) cells (3×10^4) were seeded in a 24-well plate, and then the next day, the medium was exchanged with a 5% serum medium. The cells were treated with IGF-1 (100 ng/ml, Sigma/USA), followed by incubation for 44 hours, and then the cells were treated with MMP2 (20 ng/ml) and CG-Noverin or CG-Renuin, respectively, followed by incubation for 4 hours. The supernatant obtained from centrifugation at 14,000×g for 10 minutes was analyzed using the pro-collagen type I kit.
# T2 sequence (P33434 110-662): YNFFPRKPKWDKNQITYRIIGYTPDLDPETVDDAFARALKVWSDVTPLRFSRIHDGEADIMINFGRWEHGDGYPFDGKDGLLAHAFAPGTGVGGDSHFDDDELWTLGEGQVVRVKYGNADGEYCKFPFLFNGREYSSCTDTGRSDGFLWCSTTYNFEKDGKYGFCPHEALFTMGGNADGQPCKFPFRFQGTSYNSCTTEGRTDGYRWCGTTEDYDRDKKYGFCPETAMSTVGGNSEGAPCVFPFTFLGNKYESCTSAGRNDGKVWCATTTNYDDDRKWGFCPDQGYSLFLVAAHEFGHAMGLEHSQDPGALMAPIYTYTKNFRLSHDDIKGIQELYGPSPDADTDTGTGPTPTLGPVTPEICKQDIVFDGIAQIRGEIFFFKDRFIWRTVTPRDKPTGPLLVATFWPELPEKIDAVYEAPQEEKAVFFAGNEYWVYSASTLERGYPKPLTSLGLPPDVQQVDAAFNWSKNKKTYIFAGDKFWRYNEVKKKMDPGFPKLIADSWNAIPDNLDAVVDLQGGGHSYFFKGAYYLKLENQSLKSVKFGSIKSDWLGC
Substance,proliferation of human primary dermal fibroblast cells [1],phosphorylation of ERK (NIH3T3 cells),phosphorylation of P38 (NIH3T3 cells),MMP2 activity (gelatin zymography) (MMP2 [2]),MMP2 activity in fibroblast cells (MMP2 [3]),phagocytosis (melanosome transfer) (HaCaT keratinocytes),collagen degradation induced by MMP2 (MMP2 [4])
NH2-Cys-Thr-Lys-Ile-Tyr-Asp-Pro-Val-Cys-COOH (H-CTKIYDPVC-OH; cysteine pairing not given here) [CG-Renuin],increased depending on the treatment amount,increased,increased,directly inhibited,inhibited,inhibited,inhibited the induction of collagen degradation
NH2-Cys-Pro-Arg-His-Phe-Asn-Pro-Val-Cys-COOH (H-CPRHFNPVC-OH; cysteine pairing not given here) [CG-Noverin],increased depending on the treatment amount,increased,increased,directly inhibited,inhibited,inhibited,inhibited the induction of collagen degradation
